This is an account of results in patent US20260286302A1, “METHODS FOR PRODUCING A SUPER CENTRAL MEMORY CD8 T CELL SUBTYPE BY POLY(ADP-RIBOSE) POLYMERASE (PARP) INHIBITION AND USES THEREOF” (Georgetown University, priority 2023, published 2026).

One assay concerns pMel-1 CD8 T cells. The class given is cell-based. The following applies: gp100-activated; for percentage of CD44hiCD62Lhi TCM CD8 T cell population: 48 h of treatment, for PARPi concentration-dependent. Here is the method: For ACT experiments, CD8+ T cells from pMel-1 mice were activated with gp100 peptide with and without PARPi for 48 h. Based on their CD44 and CD62L expression, cells were sorted by FACS and transferred into 9-day-old B16F10 melanoma-bearing mice tumor-bearing mice (1×10^6 cells per mouse). Tumor growth and survival of mice were monitored.
A total of 0.1-0.2×10^6 cells per sample were stained for Live/Dead staining followed by fixation and permeabilization. […] CD8^+ T cells from tumor samples were stained similarly. Data acquisition was performed on a BD LSR II flow cytometer using the software FACS Diva v.9.0. Results were analyzed using FlowJo software (TreeStar). […]

A further assay deals with human CD8 T cells. The experiment in a line: In vitro-activated human CD8+ T cells, memory characteristics. The class given is cell-based. As to conditions: anti-CD3/CD28 coupled beads for 72 h. Here is the method: For evaluation of memory characteristics in human CD8+ T cells, naive CD8+ T cells were activated in the presence or absence of PARPi, by Dynabeads™ Human T-Activator CD3/CD28 (Thermo Fisher #11131), […]. Post-activation cells were gated upon CD8^+ T cell population and various characteristics were investigated as described in the Examples below.
A total of 0.1-0.2×10^6 cells per sample were stained for Live/Dead staining followed by fixation and permeabilization. For IFNγ and granzyme B (Gzm B) staining, BD Cytofix/Cytoperm (catalog no. 51-2090KZ) and BD Perm/Wash (catalog no. 51-2091KZ) buffer set were used according to the manufacturer's instructions (BD Pharmingen). CD8^+ T cells from tumor samples were stained similarly. Data acquisition was performed on a BD LSR II flow cytometer using the software FACS Diva v.9.0. Results were analyzed using FlowJo software (TreeStar). MitoFM, a green-fluorescent mitochondrial stain, which localizes to mitochondria, was used as described previously (Sukumar et al., Cell Metab 23 (1): 63-76, 2016).
To this end, human naïve CD8 T cells were activated with anti-CD3/CD28 coupled beads for 72 h.

SMILES strings stand for the structures.

On to `NC(=O)c1cccc2cn(-c3ccc([C@@H]4CCCNC4)cc3)nc12` [Niraparib], for which the “percentage of CD44hiCD62Lhi TCM CD8 T cell population” value with pMel-1 CD8 T cells is “significantly increased”.
On to `Cn1ncnc1[C@H]1c2n[nH]c(=O)c3cc(F)cc(c23)N[C@@H]1c1ccc(F)cc1` [Talazoparib], for which the “expression of IFNγ and Gzm B in CD44hiCD62Lhi CD8 T cells” value in the assay on pMel-1 CD8 T cells (48 h) is “significantly increased”. Moreover, in the assay with pMel-1 CD8 T cells, the “percentage of CD44hiCD62Lhi TCM CD8 T cell population” value is recorded as “significantly increased”. Moreover, in the assay with human CD8 T cells, the IFNγ expression entry was “significant increase”, the “number of CD45ROhiCCR7hi cells” value was “significant increase” and the “number of CD45ROhiCD62Lhi cells” value is on record as “significant increase”.
